# Assay results from patent publication US20060069132A1, “Azolecarboxamide herbicides” (priority 2004, published 2006).
# Assays:
# wheat = assay: Test C postemergence herbicide test; type: in vivo, Triticum aestivum
# Outline: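 After a postemergence application at 1 to 4 leaves (plants 2–18 cm high), or at 2 leaves for barnyardgrass in flooded paddy, plants stayed in the greenhouse for 12 to 14 days. Damage was then judged visually relative to control plants, with 100 indicating complete control.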
# bermudagrass = assay: Test E pre-/postemergence herbicide test; type: in vivo, Cynodon dactylon; conditions: Preemergence
# Outline: (§1)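 Greenhouse response scored visually 12 to 14 days after treatment versus controls, 0 meaning no effect and 100 complete control. Compounds, formulated with surfactant in a non-phytotoxic solvent blend, were sprayed either preemergence after sowing or postemergence at the 1- to 4-leaf stage (2 to 18 cm).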
# goosegrass = assay: Test E pre-/postemergence herbicide test; type: in vivo, Eleusine indica; conditions: Preemergence
# Outline: as §1
# pitted morningglory = assay: Test E pre-/postemergence herbicide test; type: in vivo, Ipomoea lacunosa; conditions: Preemergence
# Outline: as §1
# common ragweed = assay: Test E pre-/postemergence herbicide test; type: in vivo, Ambrosia elatior; conditions: Preemergence
# Outline: as §1
# mustard = assay: Test E pre-/postemergence herbicide test; type: in vivo, Brassica nigra; conditions: Preemergence
# Outline: as §1
# guineagrass = assay: Test E pre-/postemergence herbicide test; type: in vivo, Panicum maximum; conditions: Preemergence
# Outline: as §1
# barnyardgrass = assay: Test E pre-/postemergence herbicide test; type: in vivo, Echinochloa crus-galli; conditions: Preemergence
# Outline: as §1
# broadleaf signalgrass = assay: Test E pre-/postemergence herbicide test; type: in vivo, Brachiaria platyphylla; conditions: Preemergence
# Outline: as §1
# common groundsel = assay: Test E pre-/postemergence herbicide test; type: in vivo, Senecio vulgaris; conditions: Preemergence
# Outline: as §1
# itchgrass = assay: Test E pre-/postemergence herbicide test; type: in vivo, Rottboellia cochinchinensis; conditions: Preemergence
# Outline: as §1
# Canada horseweed = assay: Test E pre-/postemergence herbicide test; type: in vivo, Erigeron Canadensis; conditions: Preemergence
# Outline: as §1
# field bindweed = assay: Test E pre-/postemergence herbicide test; type: in vivo, Convolvulus arvensis; conditions: Preemergence
# Outline: as §1
# [1] = 125 g ai/ha, scale 0 (no effect) to 100 (complete control)
# [2] = 250 g ai/ha, scale 0 (no effect) to 100 (complete control)
# [3] = 500 g ai/ha, scale 0 (no effect) to 100 (complete control)
compound,measurement,setting,value
CCNC(=O)c1cccc(NC(=O)c2cc(C(C)(C)C)nn2CC)n1 [Compound 144],Wheat plant response rating,"wheat; Postemergence, 500 g ai/ha, scale 0 to 100",30
same,"Plant response rating, Wheat","wheat; Postemergence, 250 g ai/ha, scale 0 to 100, 0 no effect, 100 complete control",30
same,"Plant response rating, Wheat","wheat; postemergence, 125 g ai/ha, scale 0 to 100",30
same,"Plant response rating, Wheat","wheat; postemergence, 62 g ai/ha, scale 0 to 100",20
same,"Plant response rating, Bermudagrass","bermudagrass; 62 g ai/ha, scale 0 to 100",50
same,"Plant response rating, Bermudagrass",bermudagrass; [1],80
same,"Plant response rating, Bermudagrass",bermudagrass; [2],85
same,"Plant response rating, Bermudagrass",bermudagrass; [3],90
same,"Plant response rating, Goosegrass","goosegrass; 62 g ai/ha, scale 0 to 100",20
same,"Plant response rating, Goosegrass",goosegrass; [1],50
same,"Plant response rating, Goosegrass",goosegrass; [2],80
same,"Plant response rating, Goosegrass",goosegrass; [3],80
same,"Plant response rating, Morningglory","pitted morningglory; 62 g ai/ha, scale 0 to 100",0
same,"Plant response rating, Morningglory",pitted morningglory; [1],20
same,"Plant response rating, Morningglory",pitted morningglory; [2],20
same,"Plant response rating, Morningglory",pitted morningglory; [3],100
same,"Plant response rating, Ragweed","common ragweed; 62 g ai/ha, scale 0 to 100",0
same,"Plant response rating, Ragweed",common ragweed; [1],30
same,"Plant response rating, Ragweed",common ragweed; [2],40
same,"Plant response rating, Ragweed",common ragweed; [3],40
same,"Plant response rating, Black Mustard","mustard; 62 g ai/ha, scale 0 to 100",20
same,"Plant response rating, Black Mustard",mustard; [1],70
same,"Plant response rating, Black Mustard",mustard; [2],75
same,"Plant response rating, Black Mustard",mustard; [3],100
same,"Plant response rating, Guineagrass","guineagrass; 62 g ai/ha, scale 0 to 100",10
same,"Plant response rating, Guineagrass",guineagrass; [1],20
same,"Plant response rating, Guineagrass",guineagrass; [2],60
same,"Plant response rating, Guineagrass",guineagrass; [3],80
same,"Plant response rating, Barnyardgrass","barnyardgrass; 62 g ai/ha, scale 0 to 100",30
same,"Plant response rating, Barnyardgrass",barnyardgrass; [1],60
same,"Plant response rating, Barnyardgrass",barnyardgrass; [2],80
same,"Plant response rating, Barnyardgrass",barnyardgrass; [3],90
same,"Plant response rating, Signalgrass","broadleaf signalgrass; 62 g ai/ha, scale 0 to 100",10
same,"Plant response rating, Signalgrass",broadleaf signalgrass; [1],20
same,"Plant response rating, Signalgrass",broadleaf signalgrass; [2],30
same,"Plant response rating, Signalgrass",broadleaf signalgrass; [3],50
same,"Plant response rating, Groundsel","common groundsel; 62 g ai/ha, scale 0 to 100",10
same,"Plant response rating, Groundsel",common groundsel; [1],100
same,"Plant response rating, Groundsel",common groundsel; [2],100
same,"Plant response rating, Groundsel",common groundsel; [3],100
same,"Plant response rating, Itchgrass","itchgrass; 62 g ai/ha, scale 0 to 100",20
same,"Plant response rating, Itchgrass",itchgrass; [1],70
same,"Plant response rating, Itchgrass",itchgrass; [2],70
same,"Plant response rating, Itchgrass",itchgrass; [3],75
same,"Plant response rating, Horseweed","Canada horseweed; 62 g ai/ha, scale 0 to 100",70
same,"Plant response rating, Horseweed",Canada horseweed; [1],100
same,"Plant response rating, Horseweed",Canada horseweed; [2],100
same,"Plant response rating, Horseweed",Canada horseweed; [3],100
same,"Plant response rating, Bindweed, Field","field bindweed; 62 g ai/ha, scale 0 to 100",0
same,"Plant response rating, Bindweed, Field",field bindweed; [2],50
same,"Plant response rating, Bindweed, Field",field bindweed; [3],80
